Laboratory results taken from patent US20120040946A1 (APEX LABORATORIES PRIVATE LIMITED, priority 2009, published 2012).
Structures can show the parent of a compound that is named as a salt.

What was measured:
[1] = Stability analysis of raw API (3 months, open & closed Petri dish) by stability indicating HPLC method and titration method; type: physicochemical; details: for Sodium Fusidate Assay(%) HPLC / Sodium Fusidate Assay(%) Titration / Percentage (%) HPLC / Percentage (%) Titration / Fusidic Acid Assay (%) HPLC / Fusidic Acid Assay (%) Titration / Percentage Drop (%) HPLC / Percentage Drop (%) Titration: after 3 months; for Percentage (%) HPLC / Percentage (%) Titration: Sodium Fusidate API; for Percentage Drop (%) HPLC / Percentage Drop (%) Titration: Fusidic acid API
[2] = 20° C.; cited from earlier work
bacterial cells = details: in vitro; cited from earlier work
gram-negative bacteria = details: cited from earlier work
Staphylococcus aureus = experiment: In vitro antimicrobial zone of inhibition study; type: cell-based
From the text: The antimicrobial/antibacterial activity of the product is confirmed by the in vitro Antimicrobial Zone of Inhibition studies for the product against Staphylococcusaureus. The details of the studies are detailed below in Table 16.

[3] = at the time of receipt of the API from the supplier

## CC(=O)O[C@H]1C[C@@]2(C)[C@@H](C[C@@H](O)[C@H]3[C@@]4(C)CC[C@@H](O)[C@@H](C)[C@@H]4CC[C@@]32C)/C1=C(\CCC=C(C)C)C(=O)O [Sodium Fusidate, 3μ,11μ,16β-Trihydroxy 29-nor-8μ, 9β, 13μ, 14β-dammara-17(20) [10,21-cis], 24-dien-21-oic acid 16-acetate, sodium salt]
[1]; 45° C. (Closed)
  Sodium Fusidate Assay(%) HPLC: 92.96%
  Sodium Fusidate Assay(%) Titration: 97.16%
  Percentage (%) HPLC: 5.74%
  Percentage (%) Titration: 1.54%
[1]; 45° C. (Open)
  Sodium Fusidate Assay(%) HPLC: 92.65%
  Sodium Fusidate Assay(%) Titration: 97.07%
  Percentage (%) HPLC: 6.05%
  Percentage (%) Titration: 1.63%
[1]; 45° C. (open condition), sodium salt
  loss in 3 Months: about 6%
[1]; RT (Closed)
  Sodium Fusidate Assay(%) HPLC: 97.67%
  Sodium Fusidate Assay(%) Titration: 98.85%
  Percentage (%) HPLC: 1.03%
  Percentage (%) Titration: −0.15%
[1]; RT (Open)
  Sodium Fusidate Assay(%) HPLC: 96.25%
  Sodium Fusidate Assay(%) Titration: 97.71%
  Percentage (%) HPLC: 2.45%
  Percentage (%) Titration: 0.99%
[1]; Tables 1 and 2
  stability as an API compared with Fusidic acid: more stable than Fusidic acid
[1]; [3]
  Sodium Fusidate Initial (%): 98.7%
[1]; room temperature (open condition), sodium salt
  loss in 3 Months: about 2.5%
[2]
  solubility in water: soluble in one part of water
Bacterial cells
  time DNA synthesis continues after contact: 45 min
  time until bacterial cells stop dividing after contact with the antibiotic: ≤ 2 min
gram-negative bacteria
  activity against gram-negative bacteria: virtually inactive

## CC1(C)S[C@@H]2[C@H](NC(=O)Cc3ccccc3)C(=O)N2[C@H]1C(=O)O [Penicillin G]
Staphylococcus aureus; Dose 10 Units
  Inference: Resistant
  Zone Diameter Range (mm): 21-27 mm

## CC(=O)O[C@H]1C[C@@]2(C)[C@@H](C[C@@H](O)[C@H]3[C@@]4(C)CC[C@@H](O)[C@@H](C)[C@@H]4CC[C@@]32C)/C1=C(\CCC=C(C)C)C(=O)O [Fusidic Acid, Fusidic acid]
[1]; 45° C. (Closed)
  Fusidic Acid Assay (%) HPLC: 92.12%
  Fusidic Acid Assay (%) Titration: 99.10%
  Percentage Drop (%) HPLC: 8.48%
  Percentage Drop (%) Titration: 1.50%
[1]; 45° C. (Open)
  Fusidic Acid Assay (%) HPLC: 89.52%
  Fusidic Acid Assay (%) Titration: 98.52%
  Percentage Drop (%) HPLC: 11.08%
  Percentage Drop (%) Titration: 2.08%
[1]; 45° C. (open condition)
  loss in 3 Months: about 11%
[1]; RT (Closed)
  Percentage Drop (%) HPLC: 6.23%
  Percentage Drop (%) Titration: 1.58%
  Fusidic Acid Assay (%) HPLC: 94.37%
  Fusidic Acid Assay (%) Titration: 99.02%
[1]; RT (Open)
  Percentage Drop (%) HPLC: 7.67%
  Percentage Drop (%) Titration: 1.39%
  Fusidic Acid Assay (%) HPLC: 92.93%
  Fusidic Acid Assay (%) Titration: 99.21%
[1]; [3]
  Fusidic Acid Initial (%): 100.6%
[1]; room temperature (open condition)
  loss in 3 Months: about 7.7%
Staphylococcus aureus; Dose 10 mcg
  Inference: Sensitive
  Zone Diameter Range (mm): 21-33 mm
Staphylococcus aureus; Dose 20 mcg
  Inference: Sensitive
  Zone Diameter Range (mm): 20-30 mm
Staphylococcus aureus; Dose 50 mcg
  Inference: Sensitive
  Zone Diameter Range (mm): 25-32 mm
